Consider 25 compounds from US20160251403A1, “PEPTIDE COMBINATIONS AND USES THEREOF IN TREATING DUST MITE ALLERGY” (ALK-ABELLO A/S, priority 2013, published 2016).

No end group written: not given here. Bounds are passed on as bounds.

One series has as its target DRB1_1302 (Homo sapiens, UniProt P01903+P01911, A100E/A169T/K41T/L162R/M171V/P40S/Q125H/Q178H/Q39Y/Q99D/R42S/S66N/T262R/V115G/W38E/Y61H). Briefly: Competitive MHC class II binding assay, DRB1_1302.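 Note: purified HLA class II protein incubated two to four days with a radiolabeled reference binder and test peptide at six concentrations over a 100,000-fold range, complex-bound radioactivity counted.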
Another series has as its target DRB1_1501 (Homo sapiens, UniProt P01903+P01911). Briefly: Competitive MHC class II binding assay, DRB1_1501.
A further series addresses DRB1_0901 (Homo sapiens, UniProt P01903+P01911, A100R/A103E/D57H/D86V/F55Y/F60I/F76Y/I96F/K127E/L162R/M171V/P40D/Q125H/Q99R/R33Q/R42F/S133A/S66N/T210M/V115G/W38K/Y107V/Y59G/Y89S). Briefly: Competitive MHC class II binding assay, DRB1_0901.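 Note: displacement of a radiolabeled probe peptide from purified HLA class II protein, bound counts read after two to four days incubation, six concentrations spanning 100,000-fold, unlabeled probe as reference.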
The target in the next series is DRB4_0101 (Homo sapiens, UniProt P01903+P13762, G164S). Briefly: Competitive MHC class II binding assay, DRB4_0101.
The next series addresses DQA10501-DQB10301 (Homo sapiens, UniProt P01909+P01920). The series is described as follows: Competitive MHC class II binding assay, DQA10501-DQB10301.
In the next series the target is DRB1_0101 (Homo sapiens, UniProt P01903+P01911, A100R/D57E/F55L/F60I/F76Y/I96L/L162R/M171V/P40L/Q125E/R42F/V115G/Y59C). The series is described as follows: Competitive MHC class II binding assay, DRB1_0101.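 Note: competition against a radiolabeled probe peptide (0.1–1 nM) for purified HLA class II protein over 2–4 days, bound counts read after antibody capture, six competitor levels across 100,000-fold.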
A further series deals with DRB1_0701 (Homo sapiens, UniProt P01903+P01911, A100R/A102G/A103Q/D57E/D86V/E43K/F76Y/K127E/L162R/M171V/P40G/Q125H/Q99D/R33Q/R42Y/R54Q/S133A/S66F/T210M/V115G/Y107V/Y59L/Y89S). The series is described as follows: Competitive MHC class II binding assay, DRB1_0701.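 Note: displacement of a radiolabeled reference peptide from purified HLA class II protein, with complex-bound radioactivity counted after 2–4 days of incubation and six concentrations spanning a 100,000-fold range.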
The target in another series is DQA10102-DQB10602. Briefly: Competitive MHC class II binding assay, DQA10102-DQB10602. Particulars: read-out: HLA-DQA10102-DQB10602; positive binding at cutoff 1000 nM.
The target of another series is DRB1_0401 (Homo sapiens, UniProt P01903+P01911, A100K/A169T/F76Y/I96L/K127E/L162R/M171V/N62H/P40V/Q125Y/R42H/S133A/S149N/S66Y/V115G/V209L/W38E). The series is described as follows: Competitive MHC class II binding assay, DRB1_0401.
A further series concerns the target DRB3_0101 (Homo sapiens, UniProt P01903+P79483). Briefly: Competitive MHC class II binding assay, DRB3_0101.
A further series has as its target DRB1_0802 (Homo sapiens, UniProt P01903+P01911, A100R/A103L/A169T/F76Y/H45Y/I96F/K41T/L162R/M171V/P40S/Q125H/Q178H/Q39Y/Q99D/R218S/R42G/S66Y/V115G/W38E). The series is described as follows: Competitive MHC class II binding assay, DRB1_0802.
For another series, the target named is DRB1_0405 (Homo sapiens, UniProt P01903+P01911, A100R/A169T/D86S/F76Y/I96L/K127E/L162R/M171V/N62H/P40V/Q125Y/R42H/S133A/S149N/S66Y/V115G/V209L/W38E). Briefly: Competitive MHC class II binding assay, DRB1_0405.
Series [1] in a line: Solubility of peptides in aqueous solutions at different pH (visual inspection, OD, HPLC). It counts as physicochemical. Particulars: for Solubility at pH 7: evaluated by visual inspection. An excerpt:
This example describes modifications of parent peptides to improve the aqueous solubility, in particular to increase the solubility in an aqueous solution having pH in a physiologically acceptable range, e.g. from 6 to 8. Solubility is closely related to the ratio between hydrophilic and hydrophobic amino acid residues and the net charge state of the peptide. Peptides have zero net charge at pH=pI, and would be expected to show the lowest solubility at this pH. […] The solubility of these peptides was increased at pH values outside the physiological range (data not shown).
Peptides were tested for their ability to dissolve in aqueous solutions at different pH values. In short, each of the peptides were dissolved in water (pH about 5-6), hydrochloride solution at pH 2 (10 mM HCl), acetate buffer with pH 5 (20 mM acetate and 140 mM sodium chloride), phosphate buffer with pH 7 (20 mM phosphate and 140 mM sodium chloride) or bistrispropate buffer with pH 9 (20 mM bitrispropane and 140 mM sodium chloride, respectively, to produce a final molar concentration of the peptide of about 0.25 mM or 1 mM. Optionally, about 20% DMSO may be part of the solution. For comparison reasons, peptides were also dissolved in acetonitrile or DMSO. The solutions were inspected visually before and after centrifugation for turbidity, presence of particles/aggregates. In addition, presence of turbidity/particles/aggregates were detected by optical density (OD), but might also be detected by size-exclusion chromatography. Sub-visual particles may also be detected by dynamic light scattering (DLS) analysis. The solubility and stability of each peptide were also investigated using HPLC, e.g. RP-HPLC. For example, each of the solutions were injected onto the HPLC and the peak height or peak area of each of the peptides were compared to the corresponding peptide of a chromatogram of peptides dissolved in acetonitrile or DMSO—as peptides were assumed to be fully dissolved and stable in these solvents.

The target in the next series is DQA10501-DQB10201 (Homo sapiens, UniProt P01909+P01920, A45G/A70V/D89A/E106A/E77G/E98D/H199R/L107V/N214S/P84L/P87L/T103K/T109R/T172A/T60S/V78E/V99I/Y58L/Y62S/Y69I/Y79F). The series is described as follows: Competitive MHC class II binding assay, DQA10501-DQB10201.
Another series has as its target DRB3_0202 (Homo sapiens, UniProt P01903+P79483, A212P/D57E/F66Y/L67A/R103Q/R218S/R40L/S89Y/T80R/V86D/Y55F/Y59H). The series is described as follows: Competitive MHC class II binding assay, DRB3_0202.
In a further series the target is DRB5_0101 (Homo sapiens, UniProt P01903+Q30154). The series is described as follows: Competitive MHC class II binding assay, DRB5_0101.

Turning to `CC[C@H](C)[C@H](NC(=O)[C@@H](NC(=O)[C@@H](N)CO)[C@@H](C)CC)C(=O)N[C@@H](Cc1c[nH]cn1)C(=O)N[C@@H](CCCNC(=N)N)C(=O)NCC(=O)N[C@@H](CCCCN)C(=O)N1CCC[C@H]1C(=O)N[C@@H](Cc1ccccc1)C(=O)N[C@@H](CCC(N)=O)C(=O)N[C@@H](CC(C)C)C(=O)N[C@@H](CCC(=O)O)C(=O)N[C@@H](C)C(=O)O` [pep-002], the IC50 on DRB1_1302, at DRB1_1501, on DRB1_0901, at DRB4_0101, on DQA10501-DQB10301 and at DRB1_0101 was < 1000 nM each time. Further, the IC50 on DRB1_0701 is < 1000 nM.
On to `CC[C@H](C)[C@H](NC(=O)CNC(=O)[C@@H](N)CCCNC(=N)N)C(=O)N[C@@H](CCC(=O)O)C(=O)N[C@@H](Cc1ccc(O)cc1)C(=O)N[C@H](C(=O)N[C@@H](CCC(N)=O)C(=O)N[C@@H](Cc1c[nH]cn1)C(=O)N[C@@H](CC(N)=O)C(=O)NCC(=O)N[C@H](C(=O)N[C@H](C(=O)N[C@@H](CCC(N)=O)C(=O)N[C@@H](CCC(=O)O)C(=O)N[C@@H](CO)C(=O)O)C(C)C)C(C)C)[C@@H](C)CC` [pep-025], for which the IC50 at DQA10102-DQB10602 was < 1000 nM.
In the case of `CC[C@H](C)[C@H](NC(=O)[C@H](CO)NC(=O)[C@@H]1CCCN1C(=O)[C@H](CCC(=O)O)NC(=O)[C@H](CO)NC(=O)CNC(=O)[C@H](Cc1c[nH]cn1)NC(=O)[C@H](CO)NC(=O)CN)C(=O)N[C@H](C(=O)N[C@@H](Cc1c[nH]cn1)C(=O)N[C@@H](CCCNC(=N)N)C(=O)NCC(=O)N[C@@H](CCCCN)C(=O)N1CCC[C@H]1C(=O)N[C@@H](Cc1ccccc1)C(=O)N[C@@H](CCC(N)=O)C(=O)N[C@@H](CC(C)C)C(=O)N[C@@H](CCC(=O)O)C(=O)N[C@@H](C)C(=O)O)[C@@H](C)CC` [pep-090], the IC50 at DRB1_1302, at DRB1_1501, on DRB1_0901, on DRB4_0101, at DQA10501-DQB10301 and at DRB1_0101 was < 1000 nM throughout. Besides, the IC50 on DQA10102-DQB10602 and at DRB1_0701 was < 1000 nM each time.
“ESVKYVQSNGGAI [HDM201, reference compound]”: the IC50 on DRB1_1302, on DRB1_1501, at DRB1_0901, at DRB4_0101, at DRB1_0401 and on DRB3_0101 was < 1000 nM in each case. Besides, the IC50 at DRB1_0101, at DRB1_0701, at DRB1_0802 and on DRB1_0405 was < 1000 nM throughout.
GSHGSDPSIIHRGKPFTLEA [pep-102]: the IC50 on DRB1_1501, on DRB1_0901, at DRB4_0101, at DQA10501-DQB10301, on DRB1_0101 and on DQA10102-DQB10602 was < 1000 nM throughout. The IC50 on DRB1_0701 is < 1000 nM.
On to HRGKPFQLEAVFEANQNTKT-NH2 [pep-151], for which the “Solubility at pH 7” value in series [1] (Table 11c) was “Clear”.
On to KIREALAQTHSAIAVIIGIKDLDA-NH2 [pep-150], for which the “Solubility at pH 7” value in [1] (Table 11c) is given as “Clear”.
LVGDNGVLASAIATHAKIRD-NH2 [pep-149]: the “Solubility at pH 7” value in series [1] (Table 11c) is listed as “Clear”.
Consider NHEIKKVLVPGSHGSEPSII [pep-089], for which the IC50 at DRB4_0101 and at DRB1_0802 was < 1000 nM throughout.
As to RGIEYIQQNGVVEERSYPYVAR [pep-134], in [1] (Table 11a), the “Solubility at pH 7” value is listed as “Clear”.
As to RHAVNIVGYSNAQGVDYWIVR [Peptide 136], the “Solubility at pH 7 (visual inspection)” value in series [1] is recorded as “Slight turbid”.
In the case of RHAVNIVGYSNAQGVDYWIVRR [Peptide 137], in series [1], the “Solubility at pH 7 (visual inspection)” value is reported as “Clear”.
For the compound RIEYIQQNGVVEERSYPYVAR [Peptide 139], the “Solubility at pH 7 (visual inspection)” value in series [1] is given as “Clear”.
On to RIEYIQQNGVVEERSYPYVARR [Peptide 140], for which the “Solubility at pH 7 (visual inspection)” value in series [1] is reported as “Clear”.
On the same count and under the same terms, the entry for RREALAQTHSAIAVIIGIKDLDA [Peptide 143] is “Slight turbid”; for RREALAQTHSAIAVIIGIKDLDAR [Peptide 144] it is “Clear”; for RRHAVNIVGYSNAQGVDYWIVRR [Peptide 138] it is “Slight turbid”.
As to RRHAVNIVGYSNAQGVDYWIVRRR [Peptide 133], the “Solubility at pH 7 (visual inspection)” value in series [1] was “Clear”.
Regarding RRIEYIQQNGVVEERSYPYVARR [Peptide 141], in [1], the “Solubility at pH 7 (visual inspection)” value was “Clear”.
Take RRIEYIQQNGVVEERSYPYVARRR [Peptide 142]: the “Solubility at pH 7 (visual inspection)” value in [1] is “Clear”.
In the case of RRREALAQTHSAIAVIIGIKDLDAR [Peptide 145], in [1], the “Solubility at pH 7 (visual inspection)” value is recorded as “Clear”.
In the case of “RRREALAQTHSAIAVIIGIKDLDARR [Peptide 146]”, in series [1], the “Solubility at pH 7 (visual inspection)” value was “Clear”.
Same read-out and setting: the entry for RRRRHAVNIVGYSNAQGVDYWIVR [Peptide 132] is “Slight turbid”.
On to TNASSINGNAPAEIDLRQM [pep-041], for which the IC50 at DRB1_1302, at DQA10501-DQB10201, on DRB3_0101 and at DRB3_0202 was < 1000 nM in each case.
Turning to YPPNANKIREALAQTHSAIA [pep-053], the IC50 at DRB1_0901, at DRB4_0101, at DQA10501-DQB10301, at DRB1_0101, at DQA10102-DQB10602 and at DRB1_0701 was < 1000 nM throughout. For the same compound, at DRB5_0101, the IC50 was < 1000 nM.
